Converted amounts (≈) assume the structure as drawn. Read-outs that look alike come from different tables or passages of the source. One block for each compound: values may come before it.
Experiments:
OXA-48 = details: cited from earlier work
OXA-10 = details: cited from earlier work
OXA 24/40 = details: cited from earlier work
A. baumannii ARC5955 = experiment: Neutropenic murine thigh infection model; assay type: in vivo; details: thigh tissue, CD-1 mice, 24 h after initiation of therapy, 50 mg/kg SC/q3h
ADC-7 β-lactamase = ADC-7 β-lactamase (Acinetobacter baumannii, UniProt Q6DRA1); experiment: β-Lactamase steady-state kinetic analysis, ADC-7; assay type: biochemical, A. baumannii
OXA-58 β-lactamase [1] = molecular target: T1, OXA-58 β-lactamase (Acinetobacter baumannii, UniProt Q2TR58); experiment: β-Lactamase steady-state kinetic analysis, OXA-58; assay type: biochemical, Acinetobacter spp.
T1 sequence (Q2TR58 22-280): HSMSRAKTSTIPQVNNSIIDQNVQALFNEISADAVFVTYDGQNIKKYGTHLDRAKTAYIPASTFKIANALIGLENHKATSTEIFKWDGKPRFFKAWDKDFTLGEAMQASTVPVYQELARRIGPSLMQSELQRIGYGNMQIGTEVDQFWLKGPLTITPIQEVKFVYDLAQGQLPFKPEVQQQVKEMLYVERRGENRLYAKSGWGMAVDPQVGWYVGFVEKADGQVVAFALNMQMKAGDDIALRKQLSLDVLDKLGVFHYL

OXA-66 β-lactamase = OXA-66 β-lactamase (Acinetobacter baumannii, UniProt Q58XD2); experiment: β-Lactamase steady-state kinetic analysis, OXA-66; assay type: biochemical, A. baumannii
Chain of OXA-66 β-lactamase (Q58XD2 entry or part of it): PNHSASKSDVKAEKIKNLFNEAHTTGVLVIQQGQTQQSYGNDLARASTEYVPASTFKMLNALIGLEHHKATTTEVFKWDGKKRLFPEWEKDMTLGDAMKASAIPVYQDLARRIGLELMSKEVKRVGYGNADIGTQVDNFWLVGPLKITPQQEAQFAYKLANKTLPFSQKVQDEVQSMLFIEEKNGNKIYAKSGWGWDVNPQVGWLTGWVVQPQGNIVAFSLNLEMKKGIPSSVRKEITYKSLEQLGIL

OXA-58 β-lactamase [2] = molecular target: T1, OXA-58 β-lactamase; experiment: OXA-58 acyl-transfer experiment (mass spectrometry), KPC-2 as recipient; assay type: biochemical; details: 10 µM each, 15 s to 24 h
OXA-23 = details: range given jointly for several OXA enzymes; cited from earlier work
OXA-24/40 = details: range given jointly for several OXA enzymes; cited from earlier work
KPC-2 β-lactamase = details: cited from earlier work
[3] = tested on: A. baumannii clinical isolates; experiment: Broth microdilution MIC susceptibility testing against carbapenems; assay type: cell-based, Acinetobacter baumannii; details: Acinetobacter baumannii
[4] = read-out: koff (residence time)

Compound: NC(=O)[C@@H]1CC[C@@H]2CN1C(=O)N2OS(=O)(=O)O [Avibactam, avibactam]
k2/Ki (OXA-48): 1.4 ± 0.1 × 10^3 M^−1 s^−1
k2/Ki (OXA-10; OXA-10 from Pseudomonas aeruginosa): 1.1 ± 0.1 × 10^1 M^−1 s^−1

Compound: CC1=C[C@@H]2CN(C(=O)N2OS(=O)(=O)O)[C@@H]1C(N)=O [ETX2514]
Log10 CFU/g (A. baumannii ARC5955): 8.8 log10 CFU/g
Change in log10 CFU/g (A. baumannii ARC5955; 50 mg/kg): 2.2 log10 CFU/g
Kd (ADC-7 β-lactamase): 0.001 ± 0.0001 µM
Ki (ADC-7 β-lactamase): 0.11 ± 0.01 µM
kinact/KI (ADC-7 β-lactamase; pH 7.4, read-out: k2/Ki): 1e+06 ± 1e+11 M⁻¹ s⁻¹
koff (ADC-7 β-lactamase; [4]): 0.0008 ± 1e-08 s⁻¹
Kd (OXA-58 β-lactamase [1]): 0.001 ± 0.0002 µM
Ki (OXA-58 β-lactamase [1]): 0.39 ± 0.04 µM
kinact/KI (OXA-58 β-lactamase [1]; pH 7.4, read-out: k2/Ki): 250000 ± 3e+09 M⁻¹ s⁻¹
koff (OXA-58 β-lactamase [1]; [4]): 0.00016 s⁻¹
Ki (OXA-66 β-lactamase): 43 ± 4 µM
acyl transfer from acylated OXA-58 to KPC-2 (OXA-58 β-lactamase [2]): did not transfer to KPC-2
k2/Ki (OXA-48): 8 ± 2 × 10^5 M^−1 s^−1
k2/Ki (OXA-10; OXA-10, range given jointly for several OXA enzymes): 5 to 9 × 10^3 M^−1 s^−1
k2/Ki (acylation rate) (OXA-23): 5 to 9 × 10^3 M^−1 s^−1
k2/Ki (acylation rate) (OXA-24/40): 5 to 9 × 10^3 M^−1 s^−1
k2/Ki (KPC-2 β-lactamase): 9.3 ± 0.6 × 10^5 M^−1 s^−1
koff (KPC-2 β-lactamase): 1.0 ± 0.1 × 10^−3 s^−1
IC50 (OXA 24/40): 0.19 µM

MIC ([3]; strain CCF 1MR): > 8 µg/mL
MIC ([3]; strain CCF 2MR): > 8 µg/mL
MIC ([3]; strain CCF 3MR): > 8 µg/mL
MIC ([3]; strain CCF 4MR): > 8 µg/mL
MIC ([3]; strain CCF 5MR): > 8 µg/mL
MIC ([3]; strain CCF 6MR): > 8 µg/mL
MIC ([3]; strain CCF 7MR): > 8 µg/mL
MIC ([3]; strain CCF 8MR): > 8 µg/mL
MIC ([3]; strain UH AB202): > 8 µg/mL
MIC ([3]; strain UH AB461): > 8 µg/mL
MIC ([3]; strain UH AB477): > 8 µg/mL
MIC ([3]; strain UH AB487): > 8 µg/mL
MIC ([3]; strain UH AB489): > 8 µg/mL
MIC ([3]; strain UH AB490): > 8 µg/mL
MIC ([3]; strain UH AB491): > 8 µg/mL
MIC ([3]; strain UH AB636): > 8 µg/mL
MIC ([3]; strain UH AB660): > 8 µg/mL
MIC ([3]; strain UH AB667): > 8 µg/mL
MIC ([3]; strain VA-432): 32 µg/mL (≈ 107 µM)
MIC ([3]; strain VA-433): 16 µg/mL (≈ 53.4 µM)
MIC ([3]; strain VA-434): 64 µg/mL (≈ 214 µM)
MIC ([3]; strain VA-435): 32 µg/mL (≈ 107 µM)
MIC ([3]; strain VA-436): 64 µg/mL (≈ 214 µM)
MIC ([3]; strain VA-437): 32 µg/mL (≈ 107 µM)
MIC ([3]; strain VA-438): 16 µg/mL (≈ 53.4 µM)
MIC ([3]; strain VA-505): 32 µg/mL (≈ 107 µM)
Compound: C[C@@H](O)[C@H]1C(=O)N2C(C(=O)O)=C(SCCN=CN)C[C@H]12 [Imipenem]
